Source: ChEMBL document CHEMBL1128994, “Carboxylic acid bioisosteres of -linked dipeptide analogues of the folate-based thymidylate synthase (TS) inhibitor, 2-desamino-2-methyl-N10-propargyl-5,8-dideazafolic acid (ICI 198583)” (Bioorg Med Chem Lett, 1996)

What was measured:
L1210 [1] = assay: Compound was evaluated for the growth inhibition of mouse L1210 (impaired) cells.; assay type: functional, cell-based
L1210 [2] = assay: Compound was evaluated for the growth inhibition of mouse L1210 cells in experiment 2; assay type: functional, cell-based
L1210 [3] = assay: Compound was evaluated for the growth inhibition of mouse L1210 cells in experiment 1; assay type: functional, cell-based
Thymidylate synthase [4] = molecular target: T1, Thymidylate synthase (Mus musculus, UniProt P07607); assay: Compound was evaluated for the inhibition of Thymidylate synthase in experiment 2
T1 sequence (P07607 whole entry): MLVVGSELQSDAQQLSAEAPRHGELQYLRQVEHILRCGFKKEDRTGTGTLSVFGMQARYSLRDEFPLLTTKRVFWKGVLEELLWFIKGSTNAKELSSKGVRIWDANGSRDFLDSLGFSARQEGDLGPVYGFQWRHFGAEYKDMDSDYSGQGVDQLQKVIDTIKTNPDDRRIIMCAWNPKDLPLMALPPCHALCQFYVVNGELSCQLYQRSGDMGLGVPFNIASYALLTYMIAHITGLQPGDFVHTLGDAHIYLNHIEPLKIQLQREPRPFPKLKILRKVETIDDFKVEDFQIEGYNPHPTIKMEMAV

Thymidylate synthase [5] = molecular target: T1, Thymidylate synthase; assay: Compound was evaluated for the inhibition of Thymidylate synthase in experiment 1
L1210 (1565) = assay: Compound was evaluated for the growth inhibition of […].; assay type: functional, cell-based
L1210 [6] = assay: Compound was evaluated for the growth inhibition of mouse L1210 cells.; assay type: functional, cell-based
Thymidylate synthase [7] = molecular target: T1, Thymidylate synthase; assay: Compound was evaluated for the inhibition of Thymidylate synthase.

Compound | IC50 (L1210 [1]) [nM] | IC50 (L1210 [2]) [nM] | IC50 (L1210 [3]) [nM] | IC50 (Thymidylate synthase [4]) [nM] | IC50 (Thymidylate synthase [5]) [nM] | IC50 (L1210 (1565)) [nM] | IC50 (L1210 [6]; Mus musculus, L1210) [nM] | IC50 (Thymidylate synthase [7]) [nM] | IC50 (L1210 [6]; l1210) [nM]
C#CCN(Cc1ccc2nc(C)[nH]c(=O)c2c1)c1ccc(C(=O)N[C@@H](CCC(=O)N[C@@H](CCc2nnn[nH]2)C(=O)O)C(=O)O)cc1 | 44000 | 4900 | 6200 | 4 | 6 | 41000 | – | – | –
C#CCN(Cc1cc2c(=O)[nH]c(C)nc2cc1C)c1ccc(C(=O)N[C@@H](CCC(=O)NC(CCC(=O)O)C(=O)O)C(=O)O)c(F)c1 (stereo in doubt) | 6800 | – | – | 0.92 | 0.4 | 8700 | 200 | – | –
C#CCN(Cc1cc2c(O)nc(C)nc2cc1C)c1ccc(C(=O)N[C@@H](CCC(=O)N[C@@H](CCc2nnn[nH]2)C(=O)O)C(=O)O)c(F)c1 | 8000 | 750 | 1500 | 1.86 | 0.82 | 7400 | – | – | –
C#CCN(Cc1ccc2nc(C)nc(O)c2c1)c1ccc(C(=O)N[C@@H](CCC(=O)N[C@H](CCC(=O)O)C(=O)O)C(=O)O)cc1 | 15000 | – | – | – | – | 16000 | 330 | – | –
C#CCN(Cc1cc2c(O)nc(C)nc2cc1C)c1ccc(C(=O)N[C@@H](CCC(=O)N[C@@H](C)c2nnn[nH]2)C(=O)O)c(F)c1 | 2000 | – | – | – | – | 1000 | 350 | 1 | 260
